Results taken from the Deep4Chem optical property database.

Test: solvent given as SMILES

CC(C)(C)c1ccc2ccc3c(C(C)(C)C)ccc4ccc1c2c43
fluorescence lifetime (in CCCCCC): 60.9 ns | fluorescence lifetime (in CO): 78.6 ns | fluorescence lifetime (in ClCCl): 43.1 ns

C[Si]1(C)c2ccccc2-c2ccccc21
fluorescence lifetime (in ClCCl): 0.15 ns

Cc1cc2cc3cc(C)c(C)cc3cc2cn1
fluorescence lifetime (in CCO): 18 ns

F[B-]1(F)n2c(c3c(c2-c2ccccc2)C2C=CC3CC2)C(c2ccccc2)=C2C3=C(C(c4ccccc4)=[N+]21)C1C=CC3CC1 (centres undefined)
fluorescence lifetime (in ClCCl): 6.1 ns

COc1ccc2c(-c3nc(-c4cccc(Br)c4)no3)cc(=O)oc2c1
fluorescence lifetime (in ClC(Cl)Cl): 6.8 ns

CC1(C)c2ccccc2N(c2ccc(-c3n[n+]4c(o3)-c3ccccc3O[B-]4(F)F)cc2)c2ccccc21
fluorescence lifetime (in ClCCl): 22 ns

Cc1cc(C)c2cc3cc(C)ncc3cc2c1
fluorescence lifetime (in CCO): 18 ns

CCCCOc1ccc(-c2cc3c(o2)c(-c2ccc(OCCCC)cc2)c2n3[B-](F)(F)[N+]3=Cc4c(-c5ccc(OCCCC)cc5)c5oc(-c6ccc(OCCCC)cc6)cc5n4[B-](F)(F)[N+]3=C2)cc1
fluorescence lifetime (in ClCCl): 2.59 ns

COc1ccc(-c2oc3cccc4c5c(-c6ccc(OC)cc6)c(=N)oc6cccc(c2c34)c65)cc1
fluorescence lifetime (in ClC(Cl)Cl): 1.5 ns

COc1ccc(-c2c3ccccc3c(-c3ccc(OC)cc3)c3ccccc23)cc1
fluorescence lifetime (in ClCCl): 4.4 ns

CCC1=C(C)C2=C(C)c3c(I)c(I)c(I)n3[B-](F)(F)[N+]2=C1C
fluorescence lifetime (in C1CCCCC1): 0.331 ns | fluorescence lifetime (in CC(C)=O): 0.206 ns | fluorescence lifetime (in CCO): 0.221 ns | fluorescence lifetime (in CCOC(C)=O): 0.241 ns | fluorescence lifetime (in CO): 0.214 ns | fluorescence lifetime (in OCC(F)(F)F): 0.21 ns

CC(C)(C)c1ccc2c(c1)sc1[n+]2[B-](F)(F)n2c(c3cccc4cccc2c43)=C1C#N
fluorescence lifetime (in ClCCl): 6 ns

Nc1ccc2cn[nH]c2c1
fluorescence lifetime (in C1CCCCC1): 4 ns | fluorescence lifetime (in CC#N): 5.4 ns | fluorescence lifetime (in CO): 3.1 ns | fluorescence lifetime (in O): 4.4 ns

F[B-]1(F)n2c(-c3ccccc3)cc(-c3ccccc3)c2N=C2C(c3ccccc3)=CC(c3ccccc3)=[N+]21
fluorescence lifetime (in CC#N): 0.78 ns

N#Cc1c(-n2c3ccc(-c4ccccc4)cc3c3cc(-c4ccccc4)ccc32)c(-n2c3ccccc3c3ccccc32)c(-n2c3ccc(-c4ccccc4)cc3c3cc(-c4ccccc4)ccc32)c(-n2c3ccccc3c3ccccc32)c1-n1c2ccc(-c3ccccc3)cc2c2cc(-c3ccccc3)ccc21
fluorescence lifetime (in Cc1ccccc1): 5.2 ns

CSc1sc(C(N)=O)c2nnn(C)c(=O)c12
fluorescence lifetime (in C1CCOC1): 19 ns | fluorescence lifetime (in CC#N): 21 ns | fluorescence lifetime (in CCO): 14 ns | fluorescence lifetime (in CN(C)C=O): 15 ns | fluorescence lifetime (in CO): 11 ns | fluorescence lifetime (in CS(C)=O): 5.4 ns

CC(C)(C)NC(=O)c1c([Si](C)(C)C)cc2ccc3cccc4ccc1c2c34
fluorescence lifetime (in ClC(Cl)Cl): 6.53 ns

CCC1=C(C)C2=Cc3cc(I)cn3[B-](F)(F)[N+]2=C1C
fluorescence lifetime (in C1CCCCC1): 0.489 ns | fluorescence lifetime (in CC(C)=O): 0.317 ns | fluorescence lifetime (in CCO): 0.349 ns | fluorescence lifetime (in CCOC(C)=O): 0.362 ns | fluorescence lifetime (in CO): 0.324 ns | fluorescence lifetime (in OCC(F)(F)F): 0.308 ns

CC(C)c1cc(C(C)C)c(B2c3ccccc3Oc3cc(N4c5ccccc5C5(c6ccccc6-c6ccccc65)c5ccccc54)ccc32)c(C(C)C)c1
fluorescence lifetime (in Cc1ccccc1): 28 ns

N#Cc1ccc(/C=C/c2ccc3ccc4cccc5ccc2c3c45)cc1
fluorescence lifetime (in C1CCOC1): 1.82 ns | fluorescence lifetime (in CC1CCCCC1): 2.05 ns | fluorescence lifetime (in CC#N): 1.68 ns | fluorescence lifetime (in CO): 1.6 ns | fluorescence lifetime (in Cc1ccccc1): 1.76 ns | fluorescence lifetime (in ClC(Cl)Cl): 1.53 ns

COc1ccc(C#Cc2ccc(C#Cc3ccc(P(=O)(c4ccccc4)c4ccccc4)cc3)cc2)cc1
fluorescence lifetime (in C1CCCCC1): 0.63 ns | fluorescence lifetime (in C1COCCO1): 0.73 ns | fluorescence lifetime (in CC#N): 1.13 ns | fluorescence lifetime (in CCO): 1.03 ns | fluorescence lifetime (in CS(C)=O): 1.17 ns | fluorescence lifetime (in ClC(Cl)Cl): 0.78 ns | fluorescence lifetime (in ClCCl): 0.87 ns

CC(C)[Si](C#Cc1ccc(C#C[Si](C(C)C)(C(C)C)C(C)C)c2nc3cc4c(cc3nc12)[C@H]1c2ccccc2[C@@H]4c2ccccc21)(C(C)C)C(C)C
fluorescence lifetime (in CCCCCC): 3.1 ns | fluorescence lifetime (in ClCCl): 3.4 ns

Nc1ccc(N2C(=O)c3ccc4c5ccc6c7c(ccc(c8ccc(c3c48)C2=O)c75)C(=O)NC6=O)cc1
fluorescence lifetime (in CN(C)C=O): 2.9 ns

C(=C\c1c2ccccc2cc2ccccc12)/c1ccc2ccccc2c1
fluorescence lifetime (in CC1CCCCC1): 3.3 ns | fluorescence lifetime (in CC#N): 3.6 ns

F[B-]1(F)Oc2ccccc2-c2c3c(c4c([n+]21)CCc1ccccc1-4)CCc1ccccc1-3
fluorescence lifetime (in ClCCl): 2.15 ns

c1ccc(N(c2ccccc2)c2ccc(-c3cccc4nc5ccccc5cc34)cc2)cc1
fluorescence lifetime (in CC#N): 6.83 ns | fluorescence lifetime (in CCCCCC): 1.95 ns | fluorescence lifetime (in CCOCC): 6.67 ns | fluorescence lifetime (in ClCCl): 14.5 ns

O=C(O)CCCCCn1c2ccc(Br)cc2c(=O)c2cc3c(cc21)c(=O)c1cc(Br)ccc1n3CCCCCC(=O)O
fluorescence lifetime (in CO): 17.3 ns

CCCCCCCCCCc1cc(-c2cc(CCCCCCCCCC)c(-c3cccs3)s2)sc1-c1cccs1
fluorescence lifetime (in CCC(C)C): 0.38 ns
